Laboratory results as given in PubChem BioAssay AID1949 (Southern Research Institute, 2009).
≈ marks a conversion by molar mass, not a printed value. Results filed as inconclusive are left out. Calls of active or inactive are those of the source. No rule for the calls is given here.

test system: M. tuberculosis H37Rv growth inhibition; test: Mycobacterium tuberculosis H37Rv growth inhibition, cell based, confirmatory dose response (AID 1949);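 also: bacteria grown 7 days with compound before Alamar blue readout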

SMILES | IC50
COc1ccc(C2=CC(=O)c3ccccc3C2=O)cc1 | 3.53 µg/mL (≈ 13.4 µM)
CCN(CC)c1ccc(NC(=O)c2ccc([N+](=O)[O-])o2)c(C)c1 | 0.52 µg/mL (≈ 1.64 µM)
Cc1ccc(C(=O)N2CCN(c3ccc(NC(=O)COc4ccccc4Cl)cc3)CC2)cc1 | 6.08 µg/mL (≈ 13.1 µM)
CSc1ccccc1NC(=O)c1ccc(Cl)s1 | 5.6 µg/mL (≈ 19.7 µM)
COC(=O)CSc1[nH]c2ccc(F)cc2c1[N+](=O)[O-] | 23.2 µg/mL (≈ 81.7 µM)
CCc1ccc(C(=S)Nc2ccccc2)nc1 | 2.23 µg/mL (≈ 9.2 µM)
Cc1cc(OCCn2ccnc2)ccc1Cl | 2.77 µg/mL (≈ 11.7 µM)
CC(C)C(=O)N1CCN(c2ccc(NC(=O)c3ccc([N+](=O)[O-])o3)cc2)CC1 | 0.21 µg/mL (≈ 0.543 µM)
CCOC(=O)c1c(C)n(-c2ccc(C)cc2)c2ccc(O)c(CN(C)C)c12 | 10.9 µg/mL (≈ 29.6 µM)
COc1cccc(C2Oc3ccccc3C=C2[N+](=O)[O-])c1OC (stereo not drawn) | > 50 µg/mL (inactive)
COc1cccc(CN2CCC(N(CCc3ccccc3)Cc3ccccc3)CC2)c1OC | 6.32 µg/mL (≈ 14.2 µM)
CC(=O)c1ccc(OC(=O)c2sc3ccccc3c2Cl)cc1 | > 50 µg/mL (inactive)
CC(=O)c1ccc(NC(=S)Nc2ccc(Br)c(Cl)c2)cc1 | 2.14 µg/mL (≈ 5.58 µM)
COc1cccc(Nc2nc(-c3ccccn3)cs2)c1 | 0.17 µg/mL (≈ 0.6 µM)
O=C(Cc1ccc(Cl)cc1)Nc1nc2ccc(Cl)cc2s1 | 3.22 µg/mL (≈ 9.55 µM)
COC(=O)c1ccc(OCC(O)CN2CCN(c3cc(Cl)ccc3C)CC2)cc1 (stereo not drawn) | 5.13 µg/mL (≈ 12.2 µM)
COc1ccc(C(=O)c2ccc(N3CCN(C)CC3)c([N+](=O)[O-])c2)c2ccccc12 | 5.57 µg/mL (≈ 13.7 µM)
Cc1nc2ccc(C(=O)OCc3cccc(F)c3)cc2nc1C | 1.68 µg/mL (≈ 5.41 µM)
O=C(CC1(O)C(=O)N(CCc2ccccc2)c2ccc(Cl)cc21)c1ccc2c(c1)OCCO2 (stereo not drawn) | 7.71 µg/mL (≈ 16.6 µM)
c1cc2c3c(cccc3c1)NC1(CCCCCC1)N2 | > 50 µg/mL (inactive)
COc1cc(Br)cc2cc(C(=O)Nc3ccccc3O)c(=O)oc12 | > 50 µg/mL (inactive)
CC1CCc2nc3sc4c(c3c(N)c2C1)CCCC4 (stereo not drawn) | 1.06 µg/mL (≈ 3.89 µM)
CC(=O)Oc1ccccc1C(=O)OCc1ccc2ccccc2c1 | 11.7 µg/mL (≈ 36.5 µM)
CCCCc1ccc2nc(NC(=O)c3cccs3)sc2c1 | 6.52 µg/mL (≈ 20.6 µM)

SMILES | IC50
Clc1ccc(SCCCn2ccnc2)cc1 | 2.36 µg/mL (≈ 9.34 µM)
Cc1ccc(OC(=O)c2ccc3nc(C)sc3c2)cc1 | > 50 µg/mL (inactive)
CC(C)OC(=O)COc1cc(O)c2c(=O)cc(-c3ccccc3)oc2c1 | 19.6 µg/mL (≈ 55.2 µM)
CC(C)(C)c1ccc(OCCN2C(=O)C(=O)c3cc(Br)ccc32)cc1 | 1.49 µg/mL (≈ 3.7 µM)
COc1ccc(-c2cc(=O)oc3cc(OCC(=O)OCc4ccccc4)ccc23)cc1 | 16.4 µg/mL (≈ 39.3 µM)
COc1ccc(CN2CCC(N(CCc3ccccc3)Cc3ccccc3)CC2)c(OC)c1 | 2.61 µg/mL (≈ 5.87 µM)
Cc1cc2ncn(Cc3ccc(C(C)C)cc3)c2cc1C | 0.91 µg/mL (≈ 3.27 µM)
NC(=O)CSc1nnc(SCc2cccc3ccccc23)s1 | 15.1 µg/mL (≈ 43.5 µM)
CC(C)c1ccc(NC(=S)NC(=O)c2ccccc2F)cc1 | 2.56 µg/mL (≈ 8.09 µM)
O=C(NC(=S)N1CCc2ccccc21)c1ccco1 | 5.64 µg/mL (≈ 20.7 µM)
CC(=O)NC(=S)NNC(=O)c1ccc(-c2ccccc2)cc1 | < 0.1 µg/mL
Cc1cc(N)cc(-c2nc3ccccc3o2)c1O | 16.4 µg/mL (≈ 68.4 µM)
N#Cc1ccccc1NC(=O)CSc1nc2cc3ccccc3cc2[nH]1 | 2.68 µg/mL (≈ 7.48 µM)
CCCOC(=O)c1ccc(NC(=S)NC(=O)c2ccc(Cl)cc2)cc1 | 0.8 µg/mL (≈ 2.12 µM)
N#C/C(=C/c1ccc(N2CCCCC2)o1)c1cccc(F)c1 | 5.98 µg/mL (≈ 20.2 µM)
O=C(Nc1ccccc1-c1ccccc1)C(Cl)(Cl)Cl | 2.44 µg/mL (≈ 7.76 µM)
COc1ccc(OCC(=O)NNC(=S)NC(=O)C(C)(C)C)cc1 | 0.13 µg/mL (≈ 0.383 µM)
CCCCNCCOc1ccc2ccccc2c1Br | 7.65 µg/mL (≈ 23.7 µM)
Cc1cccc(C)c1OCc1nnc(SCC(=O)NCCc2ccccc2)o1 | 1.75 µg/mL (≈ 4.4 µM)
CCCn1c(NCc2ccc(Br)cc2)nc2ccccc21 | 4.3 µg/mL (≈ 12.5 µM)
COc1cc(C=O)ccc1OC(=O)c1cccs1 | 4.13 µg/mL (≈ 15.7 µM)
CCOC(=O)c1c(NC(=S)N2CCN(C(=O)C3CCCO3)CC2)sc(C)c1-c1ccccc1 (stereo not drawn) | 6.67 µg/mL (≈ 13.7 µM)
COC(=O)C(C)Sc1nnc(-c2ccc(Br)cc2)o1 (stereo not drawn) | 0.99 µg/mL (≈ 2.88 µM)
CN(CCOCCOc1ccc(I)cc1)Cc1ccccc1 | 6.75 µg/mL (≈ 16.4 µM)

SMILES | IC50
O=[N+]([O-])c1cccc(S(=O)(=O)Nc2cc(Br)c(O)c3ccccc23)c1 | 5.32 µg/mL (≈ 12.6 µM)
CCN1CCN(c2ccc([N+](=O)[O-])c(-n3nc(-c4ccc(Cl)cc4)c4ccccc4c3=O)c2)CC1 | 5.6 µg/mL (≈ 11.4 µM)
N#Cc1ccccc1-c1ccc(/C=C/[N+](=O)[O-])o1 | > 50 µg/mL (inactive)
Clc1ccc(OCCCCn2ccnc2)c(Br)c1 | 1.51 µg/mL (≈ 4.58 µM)
Cc1cccc(-n2c(N)cc(=O)nc2SCC(=O)Nc2nc(-c3ccccc3)cs2)c1 | 3.08 µg/mL (≈ 6.85 µM)
COC(=O)COc1ccc2c(=O)c(-c3ccccc3Cl)coc2c1 | 0.4 µg/mL (≈ 1.16 µM)
CCOC(=O)COc1ccc2c(=O)c(Oc3cccc(OC)c3)coc2c1 | 27.2 µg/mL (≈ 73.4 µM)
Cc1cccc2sc(NC(=O)c3ccc([N+](=O)[O-])cc3Cl)nc12 | 19.4 µg/mL (≈ 55.8 µM)
CCOC(=O)Cn1cc(/C=C(/C#N)c2nc3ccc(OC)cc3[nH]2)c2ccccc21 | 0.74 µg/mL (≈ 1.85 µM)
COc1cc(NC(=S)N2CCN(C)CC2)cc(OC)c1 | > 50 µg/mL (inactive)
CC(C)(C)c1ccc(C(=O)Nc2nccs2)cc1Br | 0.37 µg/mL (≈ 1.09 µM)
CCCOc1ccc(Nc2cc(C)nc3ccc(Cl)cc23)cc1 | 0.74 µg/mL (≈ 2.26 µM)
CCC(=O)Oc1cccc2ccc(/C=C/c3ccc4c(c3)OCO4)nc12 | 0.17 µg/mL (≈ 0.489 µM)
CCN(CC)CCC(=O)c1ccc(C(C)C)cc1 | 47.6 µg/mL (≈ 193 µM)
Cc1ccc(-c2nn(-c3ccccc3)cc2CNCc2ccccc2)o1 | 9.25 µg/mL (≈ 26.9 µM)
COc1ccc(C(=O)C(CN2CCOCC2)c2ccccc2)cc1 (stereo not drawn) | 2.09 µg/mL (≈ 6.42 µM)
O=C(Oc1c(Cl)cc(Cl)c2cccnc12)c1cccc([N+](=O)[O-])c1 | 6.13 µg/mL (≈ 16.9 µM)
CCOc1ccc(Nc2nc(-c3ccccn3)cs2)cc1 | < 0.1 µg/mL
COC(=O)c1ccc(N2C(=O)CC(N(CCc3ccccc3)C(=S)Nc3ccccc3)C2=O)cc1 (stereo not drawn) | 2.77 µg/mL (≈ 5.68 µM)
CCC(=O)NC(=S)Nc1ccc(C(C)C)cc1 | < 0.1 µg/mL
CCN(CC)c1ccc(-n2nc3cc(C)c(N)cc3n2)c(C)c1 | 13.1 µg/mL (≈ 42.3 µM)
CC(C)(C)OC(=O)CS(=O)c1ccc(S(=O)(=O)C(F)(F)F)cc1[N+](=O)[O-] (stereo not drawn) | 2.14 µg/mL (≈ 5.13 µM)
O=C(Nc1ccc(Br)c(Cl)c1)c1ccc(F)cc1 | 15.7 µg/mL (≈ 47.8 µM)
CCCc1cc2c(-c3ccccc3)cc(=O)oc2cc1OCC | > 50 µg/mL (inactive)

SMILES | IC50
O=C(Nc1ccc(F)cc1)c1ccc(C#CC2(O)CCCCC2)cc1 | 10.6 µg/mL (≈ 31.4 µM)
CC1CCc2sc3ncnc(NCCc4ccccc4)c3c2C1 (stereo not drawn) | 1.85 µg/mL (≈ 5.72 µM)
COc1ccc(NC(=S)Nc2cccc(C(F)(F)F)c2)c([N+](=O)[O-])c1 | 23.3 µg/mL (≈ 62.9 µM)
O=C1c2ccccc2C(=O)c2c1nc1ccccn21 | 2.87 µg/mL (≈ 11.6 µM)
CC1CCCc2sc(NC(=S)NC(=O)c3ccccc3)c(C#N)c21 (stereo not drawn) | 0.94 µg/mL (≈ 2.64 µM)
CCCOc1ccccc1-c1nc(SCC(=O)OCC)n[nH]1 | 1.86 µg/mL (≈ 5.79 µM)
O=C(Cc1ccc(Cl)cc1)Oc1cccc2cccnc12 | > 50 µg/mL (inactive)
Cc1cccc(N2CCN(c3ncnc4sc5c(c34)CCCC5)CC2)n1 | 2.26 µg/mL (≈ 6.18 µM)
COc1ccc(-c2c(C)oc3cc(OCC(=O)OC(C)C)ccc3c2=O)cc1OC | 1.36 µg/mL (≈ 3.3 µM)
O=C(CCN1Cc2ccccc2C1)c1ccc2c(c1)OCCO2 | > 50 µg/mL (inactive)
Cc1cc(Br)c2[nH]c(O)c(N=NC(=O)COc3ccc(C(C)(C)C)cc3C)c2c1 | 27 µg/mL (≈ 59 µM)
CCCC(=O)N1CCN(c2ccc(NC(=O)c3cc(Br)ccc3Cl)cc2Cl)CC1 | 3.52 µg/mL (≈ 7.05 µM)
Cc1cc(C)nc(/N=C(\N)Nc2cc(Cl)ccc2Cl)n1 | 12.3 µg/mL (≈ 39.7 µM)
CCSc1nc2ccccc2n1C(=O)c1ccc(S(=O)(=O)N2CCOCC2)cc1 | > 50 µg/mL (inactive)
COc1ccc(C)cc1NC(=O)c1ccc(CN2CCC(Cc3ccccc3)CC2)cc1 | 3.36 µg/mL (≈ 7.84 µM)
COC(=O)COc1ccc(C2CCCCC2)cc1 | 1.46 µg/mL (≈ 5.88 µM)
O=C(Oc1ccccc1)c1cccc(COC(=O)c2cc3ccccc3oc2=O)c1 | 15.8 µg/mL (≈ 39.5 µM)
CC(C)(C)c1ccc(C(=O)Nc2nc3ccccc3[nH]2)cc1 | < 0.1 µg/mL
COc1cc(CNCCO)cc(Cl)c1OCc1ccc(Cl)cc1Cl | 5.72 µg/mL (≈ 14.6 µM)
Oc1ccccc1-c1n[nH]c(/C=C/c2ccc(Br)cc2)n1 | 3.27 µg/mL (≈ 9.56 µM)
Cc1cc([N+](=O)[O-])ccc1NC(=O)Nc1cccc(C(F)(F)F)c1 | 0.24 µg/mL (≈ 0.707 µM)
Cc1cc2ncn(CCOc3ccccc3C)c2cc1C | 6.93 µg/mL (≈ 24.7 µM)
CCC(=O)Oc1ccc(C(=O)Nc2cc3oc4ccccc4c3cc2OC)cc1 | 1.46 µg/mL (≈ 3.75 µM)
COC(=O)c1ccc(CSc2nnc(-c3ccccc3)o2)o1 | > 50 µg/mL (inactive)

SMILES | IC50
COc1cc(/C=C/c2ccc3cccc(OC)c3n2)c(Cl)cc1OC(C)=O | 35.3 µg/mL (≈ 92 µM)
CC(NC(=O)c1ccc([N+](=O)[O-])o1)C12CC3CC(CC(C3)C1)C2 (stereo not drawn) | 4.46 µg/mL (≈ 14 µM)
Oc1ccc(Br)cc1C1=NNC(c2ccc(F)cc2)C1 (stereo not drawn) | 2.89 µg/mL (≈ 8.62 µM)
O=C(OCc1ccccc1Cl)c1cc2ccccc2oc1=O | > 50 µg/mL (inactive)
O=C(Nc1ccn(Cc2ccc(Cl)cc2)n1)c1ccc2c(c1)OCO2 | 2.43 µg/mL (≈ 6.83 µM)
CN=c1c([N+](=O)[O-])nn(-c2ccccc2)n1O | > 50 µg/mL (inactive)
CCOc1cc2c3c(c1)C1(C(=O)N3C(C)(C)C=C2C)C(C#N)=C(N)Oc2cc(O)ccc21 (stereo not drawn) | 3.09 µg/mL (≈ 7.19 µM)
O=C(CSc1ccc([N+](=O)[O-])cn1)Nc1ccc2c(c1)OCO2 | 7.47 µg/mL (≈ 22.4 µM)
Cc1cc(=O)oc2cc(OCC(=O)OC3CCCCC3)ccc12 | 1.47 µg/mL (≈ 4.65 µM)
CCOC(=O)c1c(NC(=O)CNC(C)CC)sc2c1CCCC2 (stereo not drawn) | 17.4 µg/mL (≈ 51.4 µM)
O=C(Nc1ccc2c(c1)OCCO2)NC12CC3CC(CC(C3)C1)C2 | 4.52 µg/mL (≈ 13.8 µM)
Cc1nc2cc(NCc3cccc([N+](=O)[O-])c3)ccc2n1Cc1ccccc1 | 5.75 µg/mL (≈ 15.4 µM)
Cc1cccc(-n2nc([N+](=O)[O-])c(=NCCC3=CCCCC3)n2O)c1 | 3.62 µg/mL (≈ 10.5 µM)
O=C(/C=C/c1cccc(C(F)(F)F)c1)Nc1cccc(Br)c1 | 1.39 µg/mL (≈ 3.76 µM)
Cc1ccc(Cl)cc1N1CCN(CC(O)COc2ccc3ccccc3c2)CC1 (stereo not drawn) | 4.13 µg/mL (≈ 10.1 µM)
O=C(Oc1ccccc1)c1cccc(COC(=O)c2cnccn2)c1 | 28 µg/mL (≈ 83.8 µM)
COC(=O)COc1ccc2c(=O)c(-c3ccc(Cl)cc3)coc2c1 | 0.99 µg/mL (≈ 2.87 µM)
COC(=O)C(Oc1ccc2c(c1)oc(=O)c1cc(OC)ccc12)c1ccccc1 (stereo not drawn) | 1.32 µg/mL (≈ 3.38 µM)
Clc1cc(Cl)c2c(c1)NC(c1cccnc1)C1CC=CC21 (stereo not drawn) | 22.1 µg/mL (≈ 69.6 µM)
COc1c2ccoc2nc2c(OC)cccc12 | 1.76 µg/mL (≈ 7.68 µM)
Cc1nc2ccc(C(=O)OCc3nnc(-c4ccccc4)o3)cc2nc1C | 2.98 µg/mL (≈ 8.27 µM)
CCN(CC)c1ccc(NC(=S)NCC(C)C)cc1 | 5.43 µg/mL (≈ 19.4 µM)
